# How the values were obtained:
# [1] = molecular target: Epidermal growth factor receptor (Homo sapiens, UniProt P00533); assay: Inhibition of the tyrosine kinase activity of the human epidermal growth factor receptor (EGFR)
# [2] = test system: NIH3T3; assay: Compound was tested for the concentration necessary to inhibit swiss 3T3 Mouse Fibroblast cell growth rate by 50%.; assay type: functional, cell-based
# Chain of Epidermal growth factor receptor (P00533 whole entry): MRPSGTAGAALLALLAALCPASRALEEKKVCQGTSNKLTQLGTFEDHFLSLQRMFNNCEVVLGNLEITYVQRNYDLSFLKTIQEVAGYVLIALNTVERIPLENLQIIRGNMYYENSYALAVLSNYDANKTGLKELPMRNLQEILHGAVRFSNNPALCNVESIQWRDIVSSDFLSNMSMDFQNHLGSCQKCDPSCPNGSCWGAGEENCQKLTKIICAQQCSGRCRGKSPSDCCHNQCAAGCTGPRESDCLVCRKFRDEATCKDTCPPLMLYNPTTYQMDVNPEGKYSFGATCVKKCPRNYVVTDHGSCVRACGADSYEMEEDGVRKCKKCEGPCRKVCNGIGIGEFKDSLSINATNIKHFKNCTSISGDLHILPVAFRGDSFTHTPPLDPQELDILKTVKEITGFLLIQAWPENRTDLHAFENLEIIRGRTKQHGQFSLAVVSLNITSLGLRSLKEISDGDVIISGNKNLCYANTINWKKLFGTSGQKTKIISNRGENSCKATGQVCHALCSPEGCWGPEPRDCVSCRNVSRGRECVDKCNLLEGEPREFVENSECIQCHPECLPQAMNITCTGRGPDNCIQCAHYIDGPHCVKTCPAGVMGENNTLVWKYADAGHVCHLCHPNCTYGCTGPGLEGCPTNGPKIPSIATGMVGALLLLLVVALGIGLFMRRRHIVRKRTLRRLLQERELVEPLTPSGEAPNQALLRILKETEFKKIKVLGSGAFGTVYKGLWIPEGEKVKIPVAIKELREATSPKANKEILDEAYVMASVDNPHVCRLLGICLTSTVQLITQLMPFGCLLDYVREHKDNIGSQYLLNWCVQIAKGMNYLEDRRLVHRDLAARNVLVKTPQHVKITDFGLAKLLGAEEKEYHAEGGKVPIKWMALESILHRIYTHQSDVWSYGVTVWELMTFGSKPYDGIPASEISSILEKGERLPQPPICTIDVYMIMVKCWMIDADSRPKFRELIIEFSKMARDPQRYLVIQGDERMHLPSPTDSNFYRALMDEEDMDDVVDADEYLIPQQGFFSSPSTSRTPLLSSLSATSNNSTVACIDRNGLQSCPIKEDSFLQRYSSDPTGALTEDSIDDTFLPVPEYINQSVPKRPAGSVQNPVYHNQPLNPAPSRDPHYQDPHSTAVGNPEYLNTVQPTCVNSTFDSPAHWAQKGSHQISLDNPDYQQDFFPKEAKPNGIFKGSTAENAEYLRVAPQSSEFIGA
Structure (SMILES),IC50 [1],IC50 [2]
COC(=O)c1ccc(CNC(=O)CCc2c(SSc3[nH]c4ccccc4c3CCC(=O)NCc3ccc(C(=O)OC)c(O)c3)[nH]c3ccccc23)cc1O,100 µM,
O=C(CCc1c(SSc2[nH]c3ccccc3c2CCC(=O)NCc2ccc(C(=O)O)cc2)[nH]c2ccccc12)NCc1ccc(C(=O)O)cc1,7.4 µM,
O=[N+]([O-])CCc1c(SSc2[nH]c3ccccc3c2CC[N+](=O)[O-])[nH]c2ccccc12,89 µM,
O=C(CCc1c(SSc2[nH]c3ccccc3c2CCC(=O)NCc2ccccc2)[nH]c2ccccc12)NCc1ccccc1,,5.9 µM
CC(=O)NC(Cc1c(SSc2[nH]c3ccccc3c2CC(NC(C)=O)C(=O)NCc2ccccc2)[nH]c2ccccc12)C(=O)NCc1ccccc1 (configuration not stated),51 µM,
O=C(CCc1c(SSc2[nH]c3ccccc3c2CCC(=O)NCc2ccc(C(=O)O)c(O)c2)[nH]c2ccccc12)NCc1ccc(C(=O)O)c(O)c1,8.5 µM,
CC(=O)OC(Cc1c(SSc2[nH]c3ccccc3c2CC(OC(C)=O)C(=O)NCc2ccccc2)[nH]c2ccccc12)C(=O)NCc1ccccc1 (configuration not stated),28 µM,
O=C(NCc1ccccc1)C(Cc1c(SSc2[nH]c3ccccc3c2CC(NC(=O)C(F)(F)F)C(=O)NCc2ccccc2)[nH]c2ccccc12)NC(=O)C(F)(F)F (configuration not stated),> 100 µM,
O=C(Cc1c(SSc2[nH]c3ccccc3c2CC(=O)NCc2ccccc2)[nH]c2ccccc12)NCc1ccccc1,,2.7 µM
O=C(O)CCc1c(SSc2[nH]c3ccccc3c2CCC(=O)O)[nH]c2ccccc12,,60 µM

# More lines, main results first:
IC50 [1],Structure (SMILES),IC50 [2]
24 µM,O=C(CCc1c(SSc2[nH]c3ccccc3c2CCC(=O)NCCc2ccccc2)[nH]c2ccccc12)NCCc1ccccc1,
100 µM,O=C(CCC1C(=S)Nc2ccccc21)NCc1ccccc1 (configuration not stated),
100 µM,O=C(CC1C(=S)Nc2ccccc21)NCc1ccccc1 (configuration not stated),
100 µM,O=C(CCCc1c(SSc2[nH]c3ccccc3c2CCCC(=O)NCc2ccccc2)[nH]c2ccccc12)NCc1ccccc1,
25 µM,O=C(CCc1c(SSc2[nH]c3ccccc3c2CCC(=O)Nc2ccccc2)[nH]c2ccccc12)Nc1ccccc1,
47 µM,N#CCCc1c(SSc2[nH]c3ccccc3c2CCC#N)[nH]c2ccccc12,
14 µM,O=C(NCc1ccccc1)C(O)Cc1c(SSc2[nH]c3ccccc3c2CC(O)C(=O)NCc2ccccc2)[nH]c2ccccc12 (configuration not stated),
7.6 µM,NC(Cc1c(SSc2[nH]c3ccccc3c2CC(N)C(=O)NCc2ccccc2)[nH]c2ccccc12)C(=O)NCc1ccccc1 (configuration not stated),5.3 µM
9.4 µM,CNC(=O)CCc1c(SSc2[nH]c3ccccc3c2CCC(=O)NC)[nH]c2ccccc12,
32 µM,N#CCc1c(SSc2[nH]c3ccccc3c2CC#N)[nH]c2ccccc12,
12 µM,CN(C)C(=O)CCc1c(SSc2[nH]c3ccccc3c2CCC(=O)N(C)C)[nH]c2ccccc12,
